Assay results: the NIST ThermoML archive (doi:10.1021/acs.jced.7b00386)

Conditions: Liquid; for mass density: Siemens ultrasonic flowmeter; for viscosity: Capillary tube (Ostwald / Ubbelohde) method

CCCCCCC(=O)OCC [ethyl heptanoate]
Conditions | mass density [kg/m3] | viscosity [mPa·s]
303.1 K, 6000 kPa | 867.7 | –
303.19 K, 14980 kPa | 877.5 | –
303.2 K, 100 kPa | 860.8 | –
303.2 K, 3020 kPa | 864.5 | –
303.2 K, 9010 kPa | 871.2 | –
303.21 K, 11950 kPa | 874.5 | –
312.72 K, 9120 kPa | – | 1.006
312.73 K, 100 kPa | – | 0.9036
312.77 K, 6100 kPa | – | 0.9702
312.8 K, 3100 kPa | – | 0.9452
312.96 K, 100 kPa | 851.2 | –
313.06 K, 3060 kPa | 854.7 | –
313.1 K, 12180 kPa | – | 1.033
313.13 K, 6090 kPa | 858.1 | –
313.17 K, 9070 kPa | 861.4 | –
313.17 K, 15010 kPa | 867.9 | –
313.17 K, 15170 kPa | – | 1.06
313.18 K, 12000 kPa | 864.7 | –
322.62 K, 100 kPa | – | 0.7963
322.71 K, 3120 kPa | – | 0.8252
322.76 K, 15110 kPa | – | 0.9293
322.78 K, 6130 kPa | – | 0.8471
322.85 K, 9090 kPa | – | 0.8702
322.91 K, 12080 kPa | – | 0.9036
323.09 K, 100 kPa | 841.6 | –
323.09 K, 15150 kPa | 859.2 | –
323.1 K, 9100 kPa | 852.5 | –
323.11 K, 3100 kPa | 845.2 | –
323.13 K, 12060 kPa | 855.8 | –
323.14 K, 6110 kPa | 848.8 | –
333.05 K, 100 kPa | 832.1 | –
333.14 K, 3010 kPa | 835.6 | –
333.14 K, 9020 kPa | 843.2 | –
333.14 K, 12010 kPa | 846.8 | –
333.18 K, 6080 kPa | 839.7 | –
333.2 K, 15070 kPa | 850.5 | –
333.42 K, 15070 kPa | – | 0.8106
333.45 K, 100 kPa | – | 0.7016
333.5 K, 12100 kPa | – | 0.7844
333.57 K, 3070 kPa | – | 0.7229
333.6 K, 9160 kPa | – | 0.7629
333.63 K, 6130 kPa | – | 0.7431
343.02 K, 100 kPa | 823 | –
343.06 K, 3010 kPa | 827.1 | –
343.16 K, 100 kPa | – | 0.6217
343.19 K, 15000 kPa | 842.1 | –
343.2 K, 9000 kPa | 834.8 | –
343.22 K, 9070 kPa | – | 0.6801
343.22 K, 12050 kPa | – | 0.6996
343.22 K, 12100 kPa | 838.5 | –
343.23 K, 6050 kPa | 831 | –
343.27 K, 3070 kPa | – | 0.6412
343.27 K, 15120 kPa | – | 0.7191
343.38 K, 6080 kPa | – | 0.6593
352.71 K, 100 kPa | – | 0.5547
352.83 K, 3040 kPa | – | 0.5733
352.85 K, 100 kPa | 815.1 | –
352.86 K, 6100 kPa | – | 0.5898
352.9 K, 9030 kPa | – | 0.6068
352.95 K, 3090 kPa | 819.4 | –
352.95 K, 12080 kPa | – | 0.6227
353.04 K, 15040 kPa | – | 0.6414
353.06 K, 9090 kPa | 827.5 | –
353.11 K, 6070 kPa | 823.2 | –
353.14 K, 12070 kPa | 831.2 | –
353.23 K, 15010 kPa | 835.1 | –

CCCCCCCC(=O)OCC [ethyl octanoate]
Conditions | mass density [kg/m3] | viscosity [mPa·s]
303.25 K, 100 kPa | 858.1 | –
303.26 K, 12080 kPa | 871 | –
303.3 K, 6080 kPa | 864.4 | –
303.32 K, 3120 kPa | 861.3 | –
303.32 K, 9130 kPa | 867.8 | –
303.33 K, 15080 kPa | 874.1 | –
312.87 K, 100 kPa | – | 1.083
312.96 K, 3120 kPa | – | 1.133
313.03 K, 6060 kPa | – | 1.189
313.05 K, 100 kPa | 849.5 | –
313.08 K, 6150 kPa | 856.1 | –
313.08 K, 9090 kPa | – | 1.211
313.1 K, 9150 kPa | 859.6 | –
313.1 K, 12100 kPa | 862.7 | –
313.11 K, 15110 kPa | 865.9 | –
313.12 K, 3140 kPa | 853 | –
313.12 K, 12070 kPa | – | 1.245
313.14 K, 15240 kPa | – | 1.284
323 K, 100 kPa | 841.1 | –
323.07 K, 100 kPa | – | 0.9464
323.09 K, 3130 kPa | 844.7 | –
323.1 K, 6150 kPa | 848.1 | –
323.13 K, 9110 kPa | 851.4 | –
323.14 K, 12140 kPa | 854.8 | –
323.16 K, 3150 kPa | – | 0.9842
323.16 K, 15050 kPa | 858.1 | –
323.17 K, 6110 kPa | – | 1.016
323.17 K, 9080 kPa | – | 1.043
323.17 K, 12070 kPa | – | 1.064
323.19 K, 15060 kPa | – | 1.098
333 K, 100 kPa | 832.2 | –
333.14 K, 100 kPa | – | 0.8143
333.14 K, 3100 kPa | 836.2 | –
333.18 K, 6080 kPa | 839.7 | –
333.18 K, 9090 kPa | 843.3 | –
333.2 K, 12100 kPa | 846.9 | –
333.21 K, 15100 kPa | 850.3 | –
333.29 K, 3110 kPa | – | 0.8536
333.3 K, 6060 kPa | – | 0.8851
333.3 K, 9130 kPa | – | 0.9101
333.3 K, 15090 kPa | – | 0.9551
333.31 K, 12040 kPa | – | 0.9301
342.78 K, 100 kPa | – | 0.731
343.07 K, 6130 kPa | – | 0.7776
343.1 K, 12150 kPa | 838.8 | –
343.11 K, 100 kPa | 823.6 | –
343.11 K, 3120 kPa | 827.8 | –
343.14 K, 6100 kPa | 831.7 | –
343.16 K, 9070 kPa | 835 | –
343.16 K, 9090 kPa | – | 0.7968
343.17 K, 15000 kPa | 842.1 | –
343.22 K, 12100 kPa | – | 0.8165
343.27 K, 15050 kPa | – | 0.8446
343.41 K, 3120 kPa | – | 0.7572
353.1 K, 100 kPa | 814.5 | –
353.16 K, 9130 kPa | 826.8 | –
353.21 K, 100 kPa | – | 0.6393
353.21 K, 3150 kPa | 819 | –
353.24 K, 15070 kPa | 834.4 | –
353.25 K, 12140 kPa | 830.7 | –
353.27 K, 6150 kPa | 823 | –
353.32 K, 3120 kPa | – | 0.6742
353.35 K, 6090 kPa | – | 0.691
353.35 K, 12080 kPa | – | 0.7292
353.36 K, 15060 kPa | – | 0.7479
353.38 K, 9070 kPa | – | 0.707
